From patent US11000033B2, “Ketone or oxime compound, and herbicide” (NISSAN CHEMICAL CORPORATION, priority 2014, dated 2021)

Columns and labels:
soybean = experiment: Test Example 5: effect on crop by foliage application, plastic box (symbol d); assay type: in vivo; details: 320 g/ha, 3 weeks after application
How it was run: (§1)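 Soil: sterilized diluvial. Container: plastic box, 21 × 13 cm, 7 cm deep. Sowing: spot-like, ~1.5 cm cover. Growth: greenhouse, 25° C. to 30° C.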

Digitaria ciliaris = experiment: Test Example 5: herbicidal effect by foliage application, plastic box (symbol F); assay type: in vivo; details: 320 g/ha, 3 weeks after application
How it was run: (§2)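 Greenhouse foliar test: seedlings at 14 days, grown 25° C. to 30° C. in sterilized diluvial soil; compound applied as an aqueous dilution of an emulsion; response read 3 weeks after spraying.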

corn = experiment: Test Example 5: effect on crop by foliage application, plastic box (symbol c); assay type: in vivo; details: 320 g/ha, 3 weeks after application
How it was run: as §1

[1] = test system: Echinochloa crus-galli var. crus-galli; experiment: Test Example 5: herbicidal effect by foliage application, plastic box (symbol H); assay type: in vivo; details: 320 g/ha, 3 weeks after application
How it was run: as §2

Abutilon theophrasti = experiment: Test Example 5: herbicidal effect by foliage application, plastic box (symbol M); assay type: in vivo; details: 320 g/ha, 3 weeks after application
How it was run: as §2

rice plant = experiment: Test Example 5: effect on crop by foliage application, plastic box (symbol b); assay type: in vivo; details: 320 g/ha, 3 weeks after application
How it was run: as §1

rapeseed = experiment: Test Example 5: effect on crop by foliage application, plastic box (symbol g); assay type: in vivo; details: 320 g/ha, 3 weeks after application
How it was run: as §1

Veronica persica = experiment: Test Example 5: herbicidal effect by foliage application, plastic box (symbol R); assay type: in vivo; details: 320 g/ha, 3 weeks after application
How it was run: as §2

wheat = experiment: Test Example 5: effect on crop by foliage application, plastic box (symbol e); assay type: in vivo; details: 320 g/ha, 3 weeks after application
How it was run: as §1

Lolium multiflorum Lam. = experiment: Test Example 5: herbicidal effect by foliage application, plastic box (symbol K); assay type: in vivo; details: 320 g/ha, 3 weeks after application
How it was run: as §2

Avena fatua = experiment: Test Example 5: herbicidal effect by foliage application, plastic box (symbol I); assay type: in vivo; details: 320 g/ha, 3 weeks after application
How it was run: as §2

beet = experiment: Test Example 5: effect on crop by foliage application, plastic box (symbol f); assay type: in vivo; details: 320 g/ha, 3 weeks after application
How it was run: as §1

Setaria viridis = experiment: Test Example 5: herbicidal effect by foliage application, plastic box (symbol G); assay type: in vivo; details: 320 g/ha, 3 weeks after application
How it was run: as §2

Stellaria media = experiment: Test Example 5: herbicidal effect by foliage application, plastic box (symbol P); assay type: in vivo; details: 320 g/ha, 3 weeks after application
How it was run: as §2

Amaranthus retroflexus = experiment: Test Example 5: herbicidal effect by foliage application, plastic box (symbol N); assay type: in vivo; details: 320 g/ha, 3 weeks after application
How it was run: as §2

Alopecurus myosuroides = experiment: Test Example 5: herbicidal effect by foliage application, plastic box (symbol J); assay type: in vivo; details: 320 g/ha, 3 weeks after application
How it was run: as §2

Apera spica-venti = experiment: Test Example 5: herbicidal effect by foliage application, plastic box (symbol L); assay type: in vivo; details: 320 g/ha, 3 weeks after application
How it was run: as §2

| Compound | melting point [°C] | d: soybean, effect on crop grade (soybean) | F: Digitaria ciliaris, herbicidal effect grade (Digitaria ciliaris) | c: corn, effect on crop grade (corn) | H: Echinochloa crus-galli var. crus-galli, herbicidal effect grade [1] | M: Abutilon theophrasti, herbicidal effect grade (Abutilon theophrasti) | b: directly sowed rice plant, effect on crop grade (rice plant) | g: rapeseed, effect on crop grade (rapeseed) | R: Veronica persica, herbicidal effect grade (Veronica persica) | e: wheat, effect on crop grade (wheat) | K: Lolium multiflorum Lam., herbicidal effect grade (Lolium multiflorum Lam.) | I: Avena fatua, herbicidal effect grade (Avena fatua) | f: beet, effect on crop grade (beet) | G: Setaria viridis, herbicidal effect grade (Setaria viridis) | P: Stellaria media, herbicidal effect grade (Stellaria media) | N: Amaranthus retroflexus, herbicidal effect grade (Amaranthus retroflexus) | J: Alopecurus myosuroides, herbicidal effect grade (Alopecurus myosuroides) | L: Apera spica-venti, herbicidal effect grade (Apera spica-venti) |
| --- | --- | --- | --- | --- | --- | --- | --- | --- | --- | --- | --- | --- | --- | --- | --- | --- | --- | --- |
| CON=C(C)CC1CC(OC)=C(c2c(C)cc(OC)cc2C)C1=O (stereo not shown) [6-048] | 82 to 85 | – | – | – | – | – | – | – | – | – | – | – | – | – | – | – | – | – |
| CON=C(C)CC1CC(O)=C(c2c(C)cc([N+](=O)[O-])cc2C)C1=O (stereo not shown) [6-032] | 181 to 183 | 0 (Herbicidal ratio of 5% or lower (almost no effect)) | 4 (Herbicidal ratio of 70% or higher and lower than 90%) | 0 (Herbicidal ratio of 5% or lower (almost no effect)) | 4 (Herbicidal ratio of 70% or higher and lower than 90%) | 0 (Herbicidal ratio of 5% or lower (almost no effect)) | 0 (Herbicidal ratio of 5% or lower (almost no effect)) | 0 (Herbicidal ratio of 5% or lower (almost no effect)) | 0 (Herbicidal ratio of 5% or lower (almost no effect)) | 0 (Herbicidal ratio of 5% or lower (almost no effect)) | 0 (Herbicidal ratio of 5% or lower (almost no effect)) | 0 (Herbicidal ratio of 5% or lower (almost no effect)) | 0 (Herbicidal ratio of 5% or lower (almost no effect)) | 3 (Herbicidal ratio of 40% or higher and lower than 70%) | 0 (Herbicidal ratio of 5% or lower (almost no effect)) | 0 (Herbicidal ratio of 5% or lower (almost no effect)) | 0 (Herbicidal ratio of 5% or lower (almost no effect)) | 0 (Herbicidal ratio of 5% or lower (almost no effect)) |
